# Measured values reported in patent US20110195910A1, “USE OF TOCOTRIENOL COMPOSITION FOR THE PREVENTION OF CANCER” (DAVOS LIFE SCIENCE PTE. LTD., priority 2008, published 2011).
# How the values were obtained:
# [1] = Pharmacokinetics of γ-tocotrienol in mice (serum, HPLC); type: in vivo, C57BL/6 black mice; details: 1 mg γ-T3 i.p.
# Procedure: 4.1.4 Pharmacokinetics of γ-Tocotrienol in Mice—C57BL/6 black mice were purchased from The Jackson Laboratory (Bar Harbor, Me., USA). Forty 5-week old mice were given a single dose i.p injection containing 1 mg of γ-T3. Five mice were sacrificed at different time points (10 min, 30 min, 1 h, 3 h, 6 h, 24 h, 48 h and 72 h). Blood samples were collected through cardiac bleeding. To isolate the serum, blood samples were incubated at room temperature for 30 min, followed by centrifugation at 4400 rpm, 4° C. for 30 min. γ-T3 concentration in serum was analyzed using HPLC method below.
# 4.1.6 γ-Tocotrienol Extraction from Serums, Tumors and Organs—Serums were thawed and sonicated in an ultrasonic bath (Lab Companion, Vernon Hills, Ill., USA) for 5 min, followed by vortexing for 10 s. 100 μl of serum was transferred into IWAKI Pyrex glass tube (Jawa Tengah, Indonesia) containing 900 μl of water. For the tumors and organs preparation, the tissues were homogenized in 1 ml of water using borosilicate glass homogenizer (Fisher scientific, Pittsburgh, Pa.), followed by transferring to Pyrex glass tube. 5 μl of δ-T3 with purity 99% (100 mg of δ-T3 dissolved in 1 ml of ethanol) was used as an internal standard solution and was spiked into the mixture. The tube was vortexed for 10 s and sonicated for 2 min. 4 ml of the butylated hydroxytoluene (BHT) solution (5 mg of BHT in 100 ml of heptane) was added into the tube to minimize the oxidation of target analytes. Liquid-liquid extraction was performed by vortexing vigorously for 10 s. After liquid-liquid extraction, the tubes were centrifuged at 4000 rpm for 5 min in Heraeus Multifuge 3-SR Centrifuge (Newport Pagnell, Buckinghamshire, UK). 3.9 ml of the organic layer was transferred into another Pyrex tube. […]
# 4.1.7 Determination of γ-Tocotrienol level by high performance liquid chromatography—A normal phase of HPLC method was performed as a modification of procedures known in the art. […] The absorbance of γ-T3 was monitored with a […] set at an excitation wavelength of 290 nm and emission wavelength of 360 nm.
# [2] = test system: prostate intraepithelial neoplasia (PIN); assay: Prevention of prostate intraepithelial neoplasia (PIN) in prostate cancer mouse models; type: in vivo; details: fed mice, FIG. 8
# Procedure: For experiments, 5-week old prostate cancer mouse models previously published (Gabril, M. Y., Duan, W., et al., Molecular Therapy (2005), vol. 11, no. 3, p. 348; Greenberg et al., Proc Natl Acad Sci USA (1995), vol. 92, pp. 3439-3443; Duan, W., Gabril, M. Y., et al., Oncogene (2005) 24, 1510-1524; Wang S, Gao J, et al., Cancer Cell., 2003, vol. 4, no. 3, pp. 209-21; Gabril, M. Y., Onita, T., et al., Gene Ther., 2002, vol. 9, no. 23, pp. 1589-99) are used. All animal experiments were conducted according to standard protocols approved by Animal Care Committee. Genotyping was performed in PSP-TGMAP, and KIMAP mice were identified by a quick PCR genotyping protocol as previously reported (see above references referred to under item 6).
# In one exemplary experiment, the animals are given 1 mg of gamma tocotrienol per day for 30 weeks via oral gavage. At the end of 10, 20 and 30 weeks, animals are sacrificed. The prostate along with the male accessory glands, i.e., the ventral and dorsolateral prostate lobes, seminal vesicles, and coagulation gland, were dissected out separately for histopathological characterization of prostate tumor development, prostate intraepithelial neoplasia (PIN) development and microinvasion. […]
smiles,measurement,setting,value
"CC(C)=CCC/C(C)=C/CC/C(C)=C/CCC1(C)CCc2cc(O)c(C)c(C)c2O1 (stereo not shown) [γ-T3, 7,8-dimethyltocotrienol]",time the plasma level remains constant,[1],at least 72 hours
same,"plasma γ-T3 level, starting value",[1]; before the fall,260 ppm
same,plasma γ-T3 level,[1]; within 30 min after administration,50 ppm
same,development of prostate intraepithelial neoplasia (PIN),[2],prevent the formation of prostate intraepithelial neoplasia (PIN)
